Each block holds one compound with its values, some of them ahead of it.
Biological target: Human recombinant DHX9 protein (Homo sapiens (Human), UniProt Q08211)
Assay: DHX9 ATPase assay (ADP-Glo)
Format: biochemical
Settings: for IC50: read-out: DHX9 Biochemical Inflection Point

Sequence of Human recombinant DHX9 protein (Q08211 whole entry): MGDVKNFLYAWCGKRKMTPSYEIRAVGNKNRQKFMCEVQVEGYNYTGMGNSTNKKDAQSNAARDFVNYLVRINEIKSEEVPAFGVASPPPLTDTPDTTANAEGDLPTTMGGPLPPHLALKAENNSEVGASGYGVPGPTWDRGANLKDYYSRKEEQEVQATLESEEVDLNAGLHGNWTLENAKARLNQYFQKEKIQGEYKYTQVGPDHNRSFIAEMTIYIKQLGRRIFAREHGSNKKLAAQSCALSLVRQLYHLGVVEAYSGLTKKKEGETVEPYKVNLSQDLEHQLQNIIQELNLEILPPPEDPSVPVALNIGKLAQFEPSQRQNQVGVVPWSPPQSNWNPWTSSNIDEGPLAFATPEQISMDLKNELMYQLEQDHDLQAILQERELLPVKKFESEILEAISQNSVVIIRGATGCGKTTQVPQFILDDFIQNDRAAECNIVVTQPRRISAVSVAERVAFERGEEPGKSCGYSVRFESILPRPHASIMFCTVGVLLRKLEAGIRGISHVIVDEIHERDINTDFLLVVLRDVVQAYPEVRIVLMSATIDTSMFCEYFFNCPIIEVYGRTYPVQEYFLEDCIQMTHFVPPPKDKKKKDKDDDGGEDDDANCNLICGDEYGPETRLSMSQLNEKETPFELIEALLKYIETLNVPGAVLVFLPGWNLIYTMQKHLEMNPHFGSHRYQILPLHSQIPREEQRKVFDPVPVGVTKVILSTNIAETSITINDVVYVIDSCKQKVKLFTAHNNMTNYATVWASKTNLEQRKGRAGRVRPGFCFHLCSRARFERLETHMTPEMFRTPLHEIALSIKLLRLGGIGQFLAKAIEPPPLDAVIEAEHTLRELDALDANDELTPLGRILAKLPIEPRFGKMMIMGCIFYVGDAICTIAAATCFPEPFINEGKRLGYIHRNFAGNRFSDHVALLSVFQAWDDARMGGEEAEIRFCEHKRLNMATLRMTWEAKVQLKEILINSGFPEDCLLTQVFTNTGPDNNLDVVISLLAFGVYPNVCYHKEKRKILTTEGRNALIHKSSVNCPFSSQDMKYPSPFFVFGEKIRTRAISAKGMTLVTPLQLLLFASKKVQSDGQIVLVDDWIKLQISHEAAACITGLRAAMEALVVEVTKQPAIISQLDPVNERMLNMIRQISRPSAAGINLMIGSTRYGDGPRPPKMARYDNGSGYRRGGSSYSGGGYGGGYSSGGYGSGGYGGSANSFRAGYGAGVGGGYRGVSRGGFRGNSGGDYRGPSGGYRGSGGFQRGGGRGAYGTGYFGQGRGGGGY

Structure (SMILES): CS(=O)(=O)Nc1cc(Cl)cc(NC(=O)c2cc(N3CCN(CC(F)(F)F)CC3)cs2)c1 [Example 246]
DHX9 Biochemical Max Inhibition: 67.5%
IC50: 186 nM

Structure (SMILES): CS(=O)(=O)Nc1cc(Cl)cc(NC(=O)c2cnn(CCCO)c2)c1 [Example 126, N-(3-chloro-5-(methylsulfonamido)phenyl)-1-(3-hydroxypropyl)-1H-pyrazole-4-carboxamide]
DHX9 Biochemical Max Inhibition: 64.5%
IC50: 182 nM

Structure (SMILES): CCOc1cnc(-n2cc(C(=O)Nc3cc(Cl)cc(NS(C)(=O)=O)c3)cc2C)nc1 [Example 208]
DHX9 Biochemical Max Inhibition: 79.9%
IC50: 15.5 nM

Structure (SMILES): Cc1sc(C(=O)Nc2cc(Cl)cc(NS(C)(=O)=O)c2)cc1-c1c(F)cc(F)c[n+]1[O-] [Example 736]
DHX9 Biochemical Max Inhibition: 70.3
IC50: 54.9 nM

Structure (SMILES): Cc1ccc(C(=O)Nc2cc(Br)cc(NS(C)(=O)=O)c2)cc1-n1cccn1 [Example 10]
DHX9 Biochemical Max Inhibition: 61%
IC50: 133 nM

Structure (SMILES): CP(C)(=O)c1cccnc1-n1cc(C(=O)Nc2cc(Cl)cc(NS(C)(=O)=O)c2)cn1 [Example 201]
DHX9 Biochemical Max Inhibition: 66.1%
IC50: 184 nM

Structure (SMILES): CCc1nc2ccc(C(=O)Nc3cc(Cl)cc(NS(C)(=O)=O)c3)cn2c1N(C)C [Example 133]
DHX9 Biochemical Max Inhibition: 41.8%
IC50: 13600 nM

Structure (SMILES): Cn1cc(C(=O)Nc2cc(Cl)cc(NS(C)(=O)=O)c2)cc1-c1ncc(C(F)(F)F)cc1F [Example 554]
DHX9 Biochemical Max Inhibition: 79.7
IC50: 76.1 nM

Structure (SMILES): Cn1cc(C(=O)Nc2cc(Cl)cc(NS(C)(=O)=O)c2)cc1-c1ccc(N2CCN(C(=O)C3CCCC3)CC2)cn1 [Example 592]
DHX9 Biochemical Max Inhibition: 77.5
IC50: 54.1 nM

Structure (SMILES): Cc1sc(C(=O)Nc2cc(Cl)cc(NS(C)(=O)=O)c2)cc1-c1ncc(F)cc1F [Example 349]
DHX9 Biochemical Max Inhibition: 76.4%
IC50: 23.7 nM

Structure (SMILES): Cc1sc(C(=O)Nc2cc(Cl)cc(NS(C)(=O)=O)c2)cc1-c1ncccc1O [Example 227]
DHX9 Biochemical Max Inhibition: 70.6%
IC50: 7.2 nM

Structure (SMILES): Cc1cc(C(=O)Nc2cc(Cl)cc(NS(C)(=O)=O)c2)cn1-c1ccc(N2CCOC(C)(C)C2)cn1 [Example 272]
DHX9 Biochemical Max Inhibition: 71.6%
IC50: 5.4 nM

Structure (SMILES): Cc1cccnc1-c1csc(C(=O)Nc2cc(Cl)cc(NS(=O)(=O)C(C)C)c2)c1 [Example 373]
DHX9 Biochemical Max Inhibition: 49.9%

Structure (SMILES): CS(=O)(=O)Nc1cc(Cl)cc(NC(=O)c2cc3ccc(Cl)cc3s2)c1 [Example 293]
DHX9 Biochemical Max Inhibition: 55%
IC50: 87.2 nM

Structure (SMILES): CN(C)C(=O)Cc1cccnc1-c1csc(C(=O)Nc2cc(Cl)cc(NS(C)(=O)=O)c2)c1 [Example 221]
DHX9 Biochemical Max Inhibition: 78.3%
IC50: 6.6 nM

Structure (SMILES): Cc1sc(C(=O)Nc2cc(Cl)cc(NS(C)(=O)=O)c2)cc1-c1ncccc1OC(C)c1cc(F)cc(F)c1 (single isomer, unassigned) [Example 633]
DHX9 Biochemical Max Inhibition: 71.2
IC50: 52.6 nM

Structure (SMILES): CS(=O)(=O)Nc1cc(Cl)cc(NC(=O)c2cccc3ccoc23)c1 [Example 135]
DHX9 Biochemical Max Inhibition: 44.6%
IC50: 1070 nM

Structure (SMILES): CCS(=O)(=O)Nc1cc(Cl)cc(NC(=O)c2cc(C)n(-c3ccc(N4CCOCC4)cn3)c2)c1 [Example 249]
DHX9 Biochemical Max Inhibition: 64.1%
IC50: 2.8 nM

Structure (SMILES): Cn1cc(C(=O)Nc2cc(Cl)cc(NS(C)(=O)=O)c2)cc1-c1ncc(N2CC(C(F)(F)F)C2)cn1 [Example 493]
DHX9 Biochemical Max Inhibition: 67
IC50: 24.8 nM

Structure (SMILES): CN1CC[C@@H](Oc2cnc(-c3cc(C(=O)Nc4cc(Cl)cc(NS(C)(=O)=O)c4)cn3C)c(F)c2)C1 [Example 640]
DHX9 Biochemical Max Inhibition: 59
IC50: 7 nM

Structure (SMILES): Cn1cc(C(=O)Nc2cc(Cl)cc(NS(C)(=O)=O)c2)cc1-c1ccc(N2CC(S(C)(=O)=O)C2)cn1 [Example 519]
DHX9 Biochemical Max Inhibition: 71.2
IC50: 8.1 nM

Structure (SMILES): CC(C)C(=O)N1CCN(c2ccc(-n3cc(C(=O)Nc4cc(Cl)cc(NS(C)(=O)=O)c4)cn3)nc2)CC1 [Example 149, N-(3-chloro-5-(methylsulfonamido)phenyl)-1-(5-(4-isobutyrylpiperazin-1-yl)pyridin-2-yl)-1H-pyrazole-4-carboxamide]
DHX9 Biochemical Max Inhibition: 65.4%
IC50: 19.9 nM

Structure (SMILES): COc1cccc2cc(C(=O)Nc3cc(Cl)cc(NS(C)(=O)=O)c3)sc12 [Example 303]
DHX9 Biochemical Max Inhibition: 57.2%
IC50: 4020 nM

Structure (SMILES): Cc1sc(C(=O)Nc2cc(Cl)cc(NS(C)(=O)=O)c2)c(F)c1-c1ncc(OC(C)C)cn1 [Example 683]
DHX9 Biochemical Max Inhibition: 62.5
IC50: 1710 nM

Structure (SMILES): Cc1sc(C(=O)Nc2cc(Br)cc(NS(C)(=O)=O)c2)cc1-c1ccccn1 [Example 23]
DHX9 Biochemical Max Inhibition: 69%
IC50: 3.2 nM

Structure (SMILES): CS(=O)(=O)Nc1cc(Cl)cc(NC(=O)c2cc(-c3ncccc3Nc3ncccn3)cs2)c1 [Example 237]
DHX9 Biochemical Max Inhibition: 73.5%
IC50: 21 nM

Structure (SMILES): CS(=O)(=O)Nc1cc(Cl)cc(NC(=O)c2cc3c(F)c(F)ccc3s2)c1 [Example 324]
DHX9 Biochemical Max Inhibition: 63.1%
IC50: 164 nM

Structure (SMILES): Cc1sc(C(=O)Nc2cc(F)cc(NS(C)(=O)=O)c2)cc1-c1ncc(N2CC(C(F)(F)F)C2)cc1F [Example 501]
DHX9 Biochemical Max Inhibition: 73.3
IC50: 70.9 nM

Structure (SMILES): Cn1cc(C(=O)Nc2cc(Cl)cc(NS(C)(=O)=O)c2)cc1-c1ncc(OC(C)(C)C)cc1F [Example 557]
DHX9 Biochemical Max Inhibition: 59.8
IC50: 37.1 nM

Structure (SMILES): CS(=O)(=O)Nc1cc(F)cc(NC(=O)c2cc(-c3cccnc3)cs2)c1 [Example 105, N-(3-fluoro-5-(methylsulfonamido)phenyl)-4-(pyridin-3-yl)thiophene-2-carboxamide]
DHX9 Biochemical Max Inhibition: 71.7%
IC50: 80.3 nM

Structure (SMILES): CS(=O)(=O)Nc1cc(Cl)cc(NC(=O)c2cnn(-c3ccc(N4CCOCC4=O)cn3)c2)c1 [Example 180]
DHX9 Biochemical Max Inhibition: 67.4%
IC50: 20.2 nM

Structure (SMILES): Cn1cc(C(=O)Nc2cc(Cl)cc(NS(C)(=O)=O)c2)cc1Br [Example 83, 5-bromo-N-(3-chloro-5-(methylsulfonamido)phenyl)-1-methyl-1H-pyrrole-3-carboxamide]
DHX9 Biochemical Max Inhibition: 60.7%
IC50: 47.8 nM

Next, values leading:

DHX9 Biochemical Max Inhibition: 66.3%
IC50: 19.4 nM
Structure (SMILES): CN1CCN(c2cnc(-n3cc(C(=O)Nc4cc(Cl)cc(NS(C)(=O)=O)c4)cn3)cn2)CC1=O [Example 184]

DHX9 Biochemical Max Inhibition: 58.6%
IC50: 84700 nM
Structure (SMILES): CS(=O)(=O)Nc1cc(Br)cc(NC(=O)C2CCC2c2ccccc2)c1 (stereo not drawn) [Example 12]

DHX9 Biochemical Max Inhibition: 67.3
IC50: 19.8 nM
Structure (SMILES): CN1CC[C@H](Oc2cnc(-c3cc(C(=O)Nc4cc(Cl)cc(NS(C)(=O)=O)c4)cn3CC(F)(F)F)nc2)C1 [Example 642]

DHX9 Biochemical Max Inhibition: 60.3%
IC50: 137 nM
Structure (SMILES): Cc1cccc(C#N)c1-n1cc(C(=O)Nc2cc(Br)cc(NS(C)(=O)=O)c2)cn1 [Example 44]

DHX9 Biochemical Max Inhibition: 80.2
IC50: 20.3 nM
Structure (SMILES): Cn1cc(C(=O)Nc2cc(Cl)cc(NS(C)(=O)=O)c2)cc1-c1ncc(OC(F)F)cn1 [Example 553]

DHX9 Biochemical Max Inhibition: 99.8
IC50: 25 nM
Structure (SMILES): COc1cc(C(F)(F)F)cnc1-c1cc(C(=O)Nc2cc(Cl)cc(NS(C)(=O)=O)c2)sc1C [Example 550]

DHX9 Biochemical Max Inhibition: 83.2
IC50: 7.2 nM
Structure (SMILES): Cc1sc(C(=O)Nc2cc(Cl)cc(NS(C)(=O)=O)c2)cc1-c1ccc(N2CC(F)(F)C2)cn1 [Example 533]

DHX9 Biochemical Max Inhibition: 62.65
IC50: 32.9 nM
Structure (SMILES): Cn1cc(C(=O)Nc2cc(Cl)cc(NS(C)(=O)=O)c2)cc1-c1ncc(N2CC(C(F)(F)F)C2)cc1F [Example 524, N-(3-chloro-5-methanesulfonamidophenyl)-5-{3-fluoro-5-[3-(trifluoromethyl)azetidin-1-yl]pyridin-2-yl}-1-methyl-1H-pyrrole-3-carboxamide]

DHX9 Biochemical Max Inhibition: 75.9
IC50: 55.6 nM
Structure (SMILES): Cn1cc(C(=O)Nc2cc(Cl)cc(NS(C)(=O)=O)c2)cc1-c1ccc(C(F)(F)F)cn1 [Example 569]

DHX9 Biochemical Max Inhibition: 68.1
IC50: 28.5 nM
Structure (SMILES): Cn1cc(C(=O)Nc2cc(Cl)cc(NS(C)(=O)=O)c2)cc1-c1ccc(Cl)cn1 [Example 576]

DHX9 Biochemical Max Inhibition: 66.9%
IC50: 80.6 nM
Structure (SMILES): CS(=O)(=O)Nc1cc(Cl)cc(NC(=O)c2cc3ncccc3s2)c1 [Example 289]

DHX9 Biochemical Max Inhibition: 60.2
Structure (SMILES): CC(C)Oc1cnc(-c2csc(C(=O)Nc3cc(Cl)cc(NS(C)(=O)=O)c3)c2)c(F)c1 [Example 458]

DHX9 Biochemical Max Inhibition: 67.8
IC50: 11.4 nM
Structure (SMILES): Cn1cc(C(=O)Nc2cc(Cl)cc(NS(C)(=O)=O)c2)cc1-c1ncccc1Oc1cccnc1 [Example 655]

DHX9 Biochemical Max Inhibition: 70.9
IC50: 22.9 nM
Structure (SMILES): Cc1sc(C(=O)Nc2cc(Cl)cc(NS(C)(=O)=O)c2)cc1-c1ncc(C#N)cn1 [Example 585]

DHX9 Biochemical Max Inhibition: 93.6
IC50: 2.2 nM
Structure (SMILES): CC(=O)N1CCC(c2cnc(-c3cc(C(=O)Nc4cc(Cl)cc(NS(C)(=O)=O)c4)sc3C)nc2)CC1 [Example 699]

DHX9 Biochemical Max Inhibition: 78.3
IC50: 19.9 nM
Structure (SMILES): Cc1sc(C(=O)Nc2cc(Cl)cc(NS(C)(=O)=O)c2)cc1-c1ncc(N2CC(F)(F)C2)cc1OC(C)C [Example 534]

DHX9 Biochemical Max Inhibition: 84.5
IC50: 186 nM
Structure (SMILES): CCS(=O)(=O)Nc1cc(Cl)cc(NC(=O)c2cc(-c3ccc(N4CC(F)(F)C4)cn3)n(C)c2)c1 [Example 403]

DHX9 Biochemical Max Inhibition: 50%
Structure (SMILES): CS(=O)(=O)Nc1cc(Cl)cc(NC(=O)c2cnn([C@H]3CCC[C@H]3c3ccccc3)c2)c1 (single isomer, unassigned) [Example 260]

DHX9 Biochemical Max Inhibition: 66.5%
IC50: 139 nM
Structure (SMILES): Cc1cccn2cc(C(=O)Nc3cc(Cl)cc(NS(C)(=O)=O)c3)cc12 [Example 329]

DHX9 Biochemical Max Inhibition: 72.9%
IC50: 4.7 nM
Structure (SMILES): CS(=O)(=O)Nc1cc(Cl)cc(NC(=O)c2cnn(-c3ncc(N4CC5(COC5)C4)cc3OCc3cc(F)cc(F)c3)c2)c1 [Example 258]

DHX9 Biochemical Max Inhibition: 56.4
IC50: 67.3 nM
Structure (SMILES): Cn1cc(C(=O)Nc2cc(Cl)cc(NS(C)(=O)=O)c2)cc1-c1ncc(N2CCCC(F)(F)C2)cc1F [Example 483]

DHX9 Biochemical Max Inhibition: 72.175
IC50: 33.4 nM
Structure (SMILES): Cc1sc(C(=O)Nc2cc(Cl)cc(NS(C)(=O)=O)c2)cc1-c1ncc(OC(C)(C)C)cn1 [Example 559]

From patent US20240316047A1, “INHIBITORS OF RNA HELICASE DHX9 AND USES THEREOF” (ACCENT THERAPEUTICS, INC., priority 2022, published 2024)
